Target: Eukaryotic peptide chain release factor GTP-binding subunit ERF3A (Homo sapiens, UniProt P15170)
Sequence (P15170 whole entry): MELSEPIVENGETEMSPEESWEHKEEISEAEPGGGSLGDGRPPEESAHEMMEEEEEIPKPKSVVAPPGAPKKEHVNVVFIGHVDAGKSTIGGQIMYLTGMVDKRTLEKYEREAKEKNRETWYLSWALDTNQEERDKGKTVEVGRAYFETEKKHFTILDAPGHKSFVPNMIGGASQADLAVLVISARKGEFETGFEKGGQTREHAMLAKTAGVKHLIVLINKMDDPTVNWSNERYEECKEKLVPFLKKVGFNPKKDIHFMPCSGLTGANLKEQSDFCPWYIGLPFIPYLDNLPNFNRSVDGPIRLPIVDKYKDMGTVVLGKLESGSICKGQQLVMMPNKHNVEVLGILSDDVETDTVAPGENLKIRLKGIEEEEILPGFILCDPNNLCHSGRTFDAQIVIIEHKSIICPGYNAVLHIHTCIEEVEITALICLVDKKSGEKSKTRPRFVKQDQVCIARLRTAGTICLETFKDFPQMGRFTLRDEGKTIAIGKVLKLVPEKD

CN[C@H]1CC=CC[C@@H]1N(C)c1ccc2c(c1)CN(C1CCC(=O)NC1=O)C2=O (stereo partly specified)
EC50: > 50 µM

Source: ChEMBL document CHEMBL5728835, “3-(5-amino-1-oxoisoindolin-2-yl)piperidine-2,6-dione derivatives and uses thereof” (2021)
